Measurements reported in paper PMC8861615, “Searching for plant-derived antivirals against dengue virus and Zika virus” (Virology Journal, 2022).
pEC50: −log10 of the molar value. “Also recorded” adds a separate entry of the source. Where two headings read alike, the source gives them in different places.

Key:
DENV-2 [1] = assay: Virucidal activity by plaque reduction assay, DENV in BHK-21 cells; type: cell-based, Dengue virus serotype 2; conditions: compounds
Method: (§1) The virucidal activity of extracts and compounds against ZIKV and DENV was assessed by plaque reduction assay in Vero and BHK-21 cells, respectively, in 24 well microplates. […] Virus suspension without the extract/compound was included as a control. Surviving infectious viral particles were assessed by viral plaque formation assay. Briefly, the infected monolayers were overlaid with 1.5% carboxymethyl cellulose containing MEM with 2% FBS and incubated for five days. After that, cell monolayers were fixed with 10% formaldehyde and stained with 1% crystal violet 1% in an 30% ethanol aqueous solution.

DENV-2 [2] = assay: Anti-DENV-2 activity by viral CPE reduction and MTT method in BHK-21 cells; type: cell-based, Dengue virus serotype 2; conditions: for pEC50 / DENV-2 EC50 (µM): compounds, BHK-21 cells, MTT; for pEC50: read-out: DENV-2 EC50; for EC50: Dengue virus, DENV2, BHK-21, read-out: DENV-2 EC50 (µM)
Method: (§2) Plant extracts were screened for their cytotoxic and anti-ZIKV and anti-DENV activities in Vero cells and BHK-21, respectively, in 96-well culture plates by observing the reduction of the viral cytopathic effect (CPE) and then measured by the MTT method. The crude extracts were dissolved in 4% DMSO aqueous solution, and their concentration was normalized to 50 µg/ml with Eagle's minimum essential medium (MEM) supplemented with 2% fetal bovine serum (FBS). Briefly, 8 × 10^3 of BHK-21 cells or 1 × 10^4 of Vero cells per well were seeded in a 96-well plate and incubated for 24 h at 37 °C and 5% CO2 atmosphere. Extract solution and virus suspension, at a multiplicity of infection (m.o.i.) of 2, for both viruses, were simultaneously added on 70% confluent monolayers. Each extract was tested in duplicate. Controls of untreated infected and untreated uninfected cells incubated with or without DMSO were included. Interferon-α 2B, in concentrations of 500 and 1000 IU/mL, was used as a positive antiviral control in all antiviral assays. […] Briefly, the supernatants were removed, and 30 µl of a stock solution of MTT (2 mg/ml) dissolved in phosphate-buffered saline were added to each well. After 90 min of incubation at 37 °C, 130 µl of DMSO were added to each well, and plates were homogenized for 5 min at 500 rpm. The absorbance values of each reaction were measured in an ELISA reader (Spectra Max, Molecular Devices, USA) at λ540 nm. […] Cytotoxicity (CC50) and anti-ZIKV/DENV-2 (CE50) experiments were performed in duplicate and repeated at least three times.
(§3) Viral CPE and cell viability were observed by optic microscopy and measured by the MTT method as previously described. […] The experiments were performed in duplicate and repeated at least three times.
(§4) Bioassay data were normalized to untreated uninfected cells and the EC50 and CC50 values were obtained using GraphPad Prism 5 based on nonlinear logistic regression of the experimental dose–response curves. […] The CC50 and EC50 values ratio was used as a selectivity index (SI).

ZIKV [3] = assay: microbe, parasite or virus in culture; type: cell-based, Zika virus; conditions: for pEC50 / ZIKV EC50 (µM): compounds, Vero cells, MTT
Method: as §2, §3, §4

ZIKV [4] = assay: Virucidal activity by plaque reduction assay, ZIKV in Vero cells; type: cell-based, Zika virus; conditions: compounds
Method: as §1

[5] = Cytotoxicity (CC50) by MTT method in BHK-21 cells; type: cell-based, Hamster; conditions: hamster, compounds, MTT
Method: (§5) Compounds and selected extracts that tested positive for anti-ZIKV or anti-DENV-2 activity at the screening step had their CC50 determined by using an 8‐point dose range in 96 well microplate containing Vero or BHK-21 cell monolayers. Cell viability was observed by optic microscopy and measured by the MTT method as described. The experiments were performed in duplicate and repeated at least three times.
(§6) Bioassay data were normalized to untreated uninfected cells and the EC50 and CC50 values were obtained using GraphPad Prism 5 based on nonlinear logistic regression of the experimental dose–response curves. The values correspond to three independent assays' average and standard deviation with at least 8 sample distinct concentrations. The CC50 and EC50 values ratio was used as a selectivity index (SI). The extracts and compounds with higher SI values were considered the most promising and selected for further investigation if available in sufficient quantities.

[6] = Cytotoxicity (CC50) by MTT method in Vero cells; type: cell-based; conditions: African green monkey, compounds, MTT
Method: as §5, §6

BHK-21 cells = assay: Cytotoxicity (CC50) by MTT method in BHK-21 cells; type: cell-based, Hamster; conditions: for CC50: compounds, MTT
Method: as §5, §6

Vero cells = assay: Cytotoxicity (CC50) by MTT method in Vero cells; type: cell-based; conditions: for CC50: compounds, MTT
Method: as §5, §6

Structure (SMILES) | DENV-2 Virucidal activity (DENV-2 [1]) | pEC50 (ZIKV [3]) | ZIKV Virucidal activity (ZIKV [4]) | CC50 (BHK-21 cells) | CC50 (Vero cells) | DENV-2 EC50 (µM) (DENV-2 [2]) | also measured
O=C1N[C@@H]2C(=C[C@H](O)[C@@H](O)[C@H]2O)c2cc3c(c(O)c21)OCO3 [Narciclasine] | No | 7.70 | No |  |  |  | pEC50 (DENV-2 [2]): 7.70; Active concentration against DENV-2, times less than lycorine (DENV-2 [2]; ratio versus lycorine): 25 times; Active concentration against DENV-2, times less than pretazettine (DENV-2 [2]; ratio versus pretazettine): 40 times; Active concentration against ZIKV, times less than lycorine (ZIKV [3]; ratio versus lycorine): 45 times; Active concentration against ZIKV, times less than pretazettine (ZIKV [3]; ratio versus pretazettine): 95 times
CO[C@@H]1C=C[C@@]23c4cc5c(cc4C(O)O[C@H]2CN(C)[C@H]3C1)OCO5 (stereo partly drawn) [Pretazettine] | No |  | No |  |  |  | CC50 ([5]; BHK-21 cell monolayers): 5.4 µM; CC50 ([6]; Vero cell monolayers): 7.2 µM; EC50 (DENV-2 [2]): 0.8 µM; pEC50 (ZIKV [3]; Zika virus): 5.72
C[C@@H]1O[C@@H](OC[C@H]2O[C@@H](Oc3c(-c4ccc(O)c(O)c4)oc4cc(O)cc(O)c4c3=O)[C@H](O)[C@@H](O)[C@@H]2O)[C@H](O)[C@H](O)[C@H]1O [Rutine] | No |  |  | > 300 µM | > 300 µM | no antiviral activity; also recorded: Inactive | ZIKV EC50 (µM) (ZIKV [3]): no antiviral activity; also recorded: Inactive
O[C@H]1[C@H]2c3cc4c(cc3CN3CCC(=C[C@@H]1O)[C@H]23)OCO4 [Lycorine] | No |  | No |  |  |  | CC50 [5]: 4.3 µM; CC50 [6]: 3.4 µM; EC50 (DENV-2 [2]): 0.5 µM; pEC50 (ZIKV [3]; Zika virus): 6.05
CC(=O)O[C@H]1[C@H]2c3cc4c(cc3CN3CCC(=C[C@@H]1OC(C)=O)[C@H]23)OCO4 [1,2-diacetyl-lycorine] | No |  | No | > 100 µM | > 100 µM | no antiviral activity; also recorded: Inactive | ZIKV EC50 (µM) (ZIKV [3]): Inactive
CC(=O)O[C@H]1[C@H]2c3cc4c(cc3CN3CCC(=C[C@@H]1O)[C@H]23)OCO4 [1-acetyl-lycorine] | No | 4.71 | No | 7.8 µM | 19.8 µM | no antiviral activity; also recorded: Inactive | 
O=C1NC2C(=C[C@H](O)[C@@H](O)[C@H]2OC2OCC(O)C(O)C2O)c2cc3c(c(O)c21)OCO3 (stereo partly drawn) [Narciclasine-4-O-β-D-xylopyranoside, narciclasine-4-O-β-D-xylopyranoside] | No | 5.10 | No | 39.3 µM | 51.8 µM |  | Times less toxic than narciclasine in BHK-21 cells (BHK-21 cells; ratio versus narciclasine): 430 times; Times less toxic than narciclasine in Vero cells (Vero cells; ratio versus narciclasine): 430 times; pEC50 (DENV-2 [2]): 5.10
